Results taken from US20220000106A1, “HERBICIDAL COMPOSITIONS AND RELATED METHODS” (BELCHIM Crop Protection USA LLC, priority 2020, published 2022).

Tested on: various established weeds including Carolina False Dandelion, Hop Clover, White Clover, Annual Sedge, and Smooth Crabgrass
Assay: Field study of post-emergence weed control (overall percent weed control of combined weed species) in established Kentucky Tall Fescue
Assay type: in vivo
Conditions: for efficacy of all weeds: eight days after treatment
Method: Field studies were conducted on a mixed stand of established Kentucky Tall Fescue containing various established weeds including but not limited to Carolina False Dandelion, Hop Clover, White Clover, Annual Sedge, and Smooth Crabgrass in Selma, N.C. The trial location was mowed weekly at a mowing height of three inches. The distribution of weeds was uniform throughout the study.
Individual treatment plots were applied on a 1×3 meter squared plot area. The experimental design was a randomized complete block with three replications. The applications were made with a carbon dioxide backpack sprayer equipped with 11003 nozzles with a spray pressure of 40 psi calibrated to deliver approximately 40 gallons per acre spray volume. All applications were applied on a single day. The wind speed was less than 10 mph at time of application.
Data were collected at 2, 4, 8, 13, 23 and 30 days after application of treatments, respectively. Data were collected as an estimate of overall percent weed control (efficacy) of combined weed species taking into consideration necrosis, chlorosis, and stunting of each weed species. The data were analyzed in ARM using the ANOVA and preforming the Duncan's New MRT test at P=0.05 (indicated by “a,” “b,” “c,”, etc.).
Glufosinate used in this trial was Surmise (2.34 lb/gal.) marketed by Albaugh LLC. Pelargonic Acid used in this trial was Beloukha Garden Herbicide (4.21 lb/gal.) marketed by Belchim Crop Protection USA.
The total percent weed control was calculated by comparing the individual treated plots and assessing individual weeds.

CP(=O)(O)CCC(N)C(=O)O (stereo not shown) [Glufosinate, 2-amino-4-[hydroxy(methyl)phosphoryl]butanoic acid]
Percent Control (0.5 fluid oz/gal, 2 days after treatment): 0.0b % | Percent Control (0.5 fluid oz/gal, 4 days after treatment): 20.0c % | Percent Control (0.5 fluid oz/gal, 8 days after treatment): 85.0ab % | Percent Control (0.5 fluid oz/gal, 13 days after treatment): 90.0b % | Percent Control (0.5 fluid oz/gal, 23 days after treatment): 85.2b % | Percent Control (0.5 fluid oz/gal, 30 days after treatment): 83.6b % | Percent Control (1.0 fluid oz/gal, 2 days after treatment): 0.0b % | Percent Control (1.0 fluid oz/gal, 4 days after treatment): 15.0cd % | Percent Control (1.0 fluid oz/gal, 8 days after treatment): 91.0a % | Percent Control (1.0 fluid oz/gal, 13 days after treatment): 90.7b % | Percent Control (1.0 fluid oz/gal, 23 days after treatment): 90.4b % | Percent Control (1.0 fluid oz/gal, 30 days after treatment): 95.0a % | Percent Control (2.0 fluid oz/gal, 2 days after treatment): 0.0b % | Percent Control (2.0 fluid oz/gal, 4 days after treatment): 15.0cd % | Percent Control (2.0 fluid oz/gal, 8 days after treatment): 94.3a % | Percent Control (2.0 fluid oz/gal, 13 days after treatment): 98.0a % | Percent Control (2.0 fluid oz/gal, 23 days after treatment): 99.1a % | Percent Control (2.0 fluid oz/gal, 30 days after treatment): 97.1a % | efficacy of all weeds (all glufosinate treatments at all dose rates): 85 to 94% | control of all weeds (efficacy) (glufosinate alone, all dose rates, 23 days after treatment): 85 to 99%

CCCCCCCCC(=O)O [Pelargonic Acid, nonanoic acid]
Percent Control (3.2 fluid oz/gal, 2 days after treatment): 6.7b % | Percent Control (3.2 fluid oz/gal, 4 days after treatment): 20.0c % | Percent Control (3.2 fluid oz/gal, 8 days after treatment): 40.0c % | Percent Control (3.2 fluid oz/gal, 13 days after treatment): 22.2d % | Percent Control (3.2 fluid oz/gal, 23 days after treatment): 20.0d % | Percent Control (3.2 fluid oz/gal, 30 days after treatment): 20.0c % | Percent Control (6.4 fluid oz/gal, 2 days after treatment): 40.0a % | Percent Control (6.4 fluid oz/gal, 2 days after treatment, listed as pelargonic acid): 40% | Percent Control (6.4 fluid oz/gal, 4 days after treatment): 50.0b % | Percent Control (6.4 fluid oz/gal, 8 days after treatment): 73.3b % | Percent Control (6.4 fluid oz/gal, 13 days after treatment): 66.7c % | Percent Control (6.4 fluid oz/gal, 23 days after treatment): 40.0c % | Percent Control (6.4 fluid oz/gal, 30 days after treatment): 23.2c % | efficacy of all weeds (pelargonic acid alone, both dose rates): 40% to 73
